Data reported in patent US20210386365A1, “BIOMARKERS OF NEUROPATHIC PAIN” (Children`s Medical Center Corporation, priority 2018, published 2021).

Test system: SNI mice
Assay: EEG/EMG sleep analysis (NREMS fragmentation by brief awakenings) in spared nerve injury mice treated with analgesic drugs
Format: in vivo
Settings: for sleep fragmentation: mice with nerve injury, efficacy at doses active in patients with neuropathic pain
Text: EEG/EMG implantation surgery: C57BL6/j mice were anesthetized with isoflurane gas (3% induction/2% maintenance) and placed in a stereotaxic apparatus (David Kopf Instruments, Tujunga, Calif.). […] Two flexible EMG electrodes(multistranded stainless steel wire; AS131, Cooner Wire, Chatsworth, Calif.) were inserted into the neck extensor muscles. All electrodes were previously soldered to a six-pin connector (MMX852-10-006-10-001000; Mill-Maz Mfg. Corp., Oyster Bay, N.Y.) and covered with epoxy glue to ensure insulation. The headmount was affixed to the animal's skull with dental acrylic cement, and the scalp wound was sutured closed behind the headmount. Mice were given meloxicam (5 mg/kg, i.p.) before they regained consciousness and then daily for 3 days and were housed singly after surgery.
EEG/EMG acquisition: Ten to fifteen days after EEG/EMG implantation, mice were transferred to individual sleep-recording cages (transparent cylindrical cage, 12″ diameter and 12″ height) in a sound-attenuated chamber with a 12:12 h light-dark cycle, ad libitum food and water, and connected to a tethered pre-amplifier (100× gain, 0.5 Hz high-pass filter for EEG, 10 Hz high-pass filter for EMG; Pinnacle Technology Inc., Lawrence, Kans., USA). The other end of the tether was plugged into a low-torque commutator (8204, Pinnacle Technology Inc., Lawrence, Kans., USA) for freely moving recordings. A data conditioning and acquisition system (DCAS, 8206) performed secondary amplification and filtering (low-pass filter: 100 Hz for EEG, 200 Hz for EMG). Mice habituated for 3-5 days to the recording setup before their baseline sleep-wake and sensory behaviors were measured.
Spared nerve injury (SNI): surgery was performed under 3% induction/2% maintenance with isoflurane on adult mice (8 to 12 weeks old). The tibial and common peroneal branches of the sciatic nerve were tightly ligated with a 5.0 silk suture and transected distally, while the sural nerve was left intact (Decosterd and Woolf, 2000). After injury, incision was sutured and mice were allowed to recover on heated pads before being returned to their homecage. The surgeon who performed the SNI was blinded to the genotype. This model causes permanent pain hypersensitivity. Sciatic nerve crush (SNcrush): surgery was performed under 3% induction/2% maintenance with isoflurane on adult mice (8 to 12 weeks old). The left sciatic nerve was exposed just below the sciatic notch under sterile conditions and then crushed using Dumont #5/45 forceps for 30 seconds under a dissection microscope. After the nerve injury, the incision wound was sutured and animals were allowed to recover on heated pads before being returned to their home cage. The surgeon who performed the SNcrush was blinded to the treatment. This model causes transient hypersensitivity before return to normal sensitivity. Sham control: surgery was performed under 3% induction/2% maintenance with isoflurane on adult mice (8 to 12 weeks old). The left sciatic nerve was exposed but left intact and the animals were allowed to recover on heated pads before being returned to their home cage.
EEG and EMG signals were digitized at a sampling rate of 400 Hz through Sirenia® Acquisition software (Pinnacle Technology Inc, Lawrence, Kans., USA) and converted to European Data Format (.EDF). Using SleepSign® for Animal (Kissei Comtec Co., Japan) software, EEG and EMG signals were digitally filtered (EEG, 0.5-100 Hz; EMG, 10-200 Hz) and scored semi-automatically using 10-s epochs, as wake, NREMS or REMS. This preliminary scoring was visually inspected by a trained experimenter, who was blinded to the experimental conditions, and corrected when appropriate. To evaluate sleep fragmentation, transient waking events occurring during NREMS were evaluated: these brief awakenings (BAs) were defined by a high-frequency low-amplitude EEG associated with an increase of EMG tone ranging from 2-15 s (Franken et al., 1991; Tobler et al., 1997). […]

NC(=O)N1c2ccccc2C=Cc2ccccc21 [carbamazepine]
average length of NREM (SNI mice, carbamazepine 5 mg/kg versus saline, FIGS. 8E-8G): restored the average length of NREM | sleep fragmentation: dose-dependently normalize sleep fragmentation

NCC1(CC(=O)O)CCCCC1 [gabapentin]
total amount of sleep (SNI mice with and without GBP treatment, FIG. 8C): not affected | latency on sleep (time from full wakefulness to sleep) (SNI mice with and without GBP treatment, FIG. 8D): slight increase | time after administration at which effects on NREMS length were the strongest (SNI mice, FIG. 8B): 0 to 2 h | sedation (SNI mice, gabapentin treatment): without causing sedation | average length of NREMS (SNI mice, gabapentin treatment, FIG. 8A): restored the average length of NREMS | sleep fragmentation: dose-dependently normalize sleep fragmentation
